Measurements published in patent US20250145715A1, “B7-H3 TARGETING FUSION PROTEINS AND METHODS OF USE THEREOF” (GT Biopharma, Inc., priority 2021, published 2025).

Legend:
Type in all cases: cell-based, human
[1] = test system: U266 cells; assay: IncuCyte Zoom NK cell killing of U266; conditions: bortezomib 10 nM with B7-H3-TriKE and NK cells, 48 hours
Text: (§1) FIGS. 7A-7B illustrate the ability of peripheral blood NK cells with or without B7-H3-TriKE to kill myeloma cells in live imaging IncuCyte Zoom assays. FIG. 7A is a graph showing the effects with effector:target (E:T) ratios of 2:1 and 4:1 on MM1S cells. FIG. 7B is a graph showing the effects with effector:target (E:T) ratios of 2:1 and 4:1 on U266 cells.
as §1, with “8A-8D” for “7A-7B”, “8A is a graph showing the effects with effector:target (E:T) ratios of 2:1 and 4:1 on H929 cells. FIG. 8B” for “7A”, “8C is a graph showing the effects with effector:target (E:T) ratios of 2:1 and 4:1 on RPMI-8226 cells. FIG. 8D” for “7B”
FIGS. 9A-9D illustrate the efficacy of B7-H3-TriKE with the proteasome inhibitor bortezomib (10 nM) and the immunomodulatory drug lenalidomide (5 μM). FIG. 9A is a graph showing the effect of the combination therapy on H929 cells after 48 hours. FIG. 9B is a graph showing the effect of the combination therapy on RPMI-8226 cells after 48 hours. FIG. 9C is a graph showing the effect of the combination therapy on MM1S cells after 48 hours. […]

[2] = test system: MM1S cells; assay: IncuCyte Zoom NK cell killing of MM1S; conditions: bortezomib 10 nM or lenalidomide 5 μM with B7-H3 TriKE and NK cells, 48 hours; not statistically significant
Text: as §1
as §1, with “8A-8D” for “7A-7B”, “8A is a graph showing the effects with effector:target (E:T) ratios of 2:1 and 4:1 on H929 cells. FIG. 8B” for “7A”, “8C is a graph showing the effects with effector:target (E:T) ratios of 2:1 and 4:1 on RPMI-8226 cells. FIG. 8D” for “7B”
(§2) FIGS. 9A-9D illustrate the efficacy of B7-H3-TriKE with the proteasome inhibitor bortezomib (10 nM) and the immunomodulatory drug lenalidomide (5 μM). FIG. 9A is a graph showing the effect of the combination therapy on H929 cells after 48 hours. FIG. 9B is a graph showing the effect of the combination therapy on RPMI-8226 cells after 48 hours. FIG. 9C is a graph showing the effect of the combination therapy on MM1S cells after 48 hours. FIG. 9D is a graph showing the effect of the combination therapy on U266 cells after 48 hours.
(§3) The ability of peripheral blood NK cells with or without B7-H3-TriKE to kill myeloma cells was compared in live imaging IncuCyte Zoom assays with escalating doses of TriKE. Maximal killing occurred with 3 nM concentration.
(§4) The efficacy of B7-H3-TriKE with the proteasome inhibitor bortezomib (10 nM) and the immunomodulatory drug lenalidomide (5 μM) was also tested. Cytotoxicity curves were compared by repeated measures ANOVA and performed in triplicate.

[3] = test system: RPMI-8226 cells; assay: IncuCyte Zoom NK cell killing of RPMI-8226; conditions: bortezomib 10 nM or lenalidomide 5 μM with B7-H3-TriKE and NK cells, 48 hours
Text: as §1, with “8A-8D” for “7A-7B”, “8A is a graph showing the effects with effector:target (E:T) ratios of 2:1 and 4:1 on H929 cells. FIG. 8B” for “7A”, “8C is a graph showing the effects with effector:target (E:T) ratios of 2:1 and 4:1 on RPMI-8226 cells. FIG. 8D” for “7B”
as §2, §3, §4

[4] = test system: H929 cells; assay: IncuCyte Zoom NK cell killing of H929; conditions: bortezomib 10 nM or lenalidomide 5 μM with B7-H3-TriKE and NK cells, 48 hours
Text: as §1, with “8A-8D” for “7A-7B”, “8A is a graph showing the effects with effector:target (E:T) ratios of 2:1 and 4:1 on H929 cells. FIG. 8B” for “7A”, “8C is a graph showing the effects with effector:target (E:T) ratios of 2:1 and 4:1 on RPMI-8226 cells. FIG. 8D” for “7B”
as §2, §3, §4

[5] = test system: T cells (CD56−CD3+); assay: T cell proliferation in PBMCs, CellTrace Violet dilution; conditions: 7 days, 5 nM equimolar
Experimental: FIGS. 2A-2H illustrates that cam1615B7-H3 TriKE induces potent, and specific, natural killer (NK) cell proliferation. Peripheral blood mononuclear cells (PBMCs) were CellTrace Violet labeled and incubated for seven days at 5 nM equimolar concentrations of rhIL-15 or cam1615B7-H3 TriKE. On day 7, the cells were harvested and stained for flow cytometric evaluation. […] FIG. 2B is a graph illustrating pooled data showing the overall proportion of NK cells that proliferated. FIG. 2C is a graph illustrating pooled data showing the proportion of NK cells that highly proliferated (measured as proliferation beyond three divisions). FIG. 2D is a graph illustrating pooled data showing NK cell counts in the cultures (N=9). FIG. 2E is a representative histogram showing T cell (CD56− CD3+) proliferation. FIG. 2F is a graph illustrating pooled data showing the overall proportion of T cells proliferated. FIG. 2G is a graph illustrating pooled data showing the proportion of T cells highly proliferated. FIG. 2H is a graph illustrating pooled data showing T cell counts in the cultures (N=9). * p<0.05, ** p<0.01, *** p<0.001.
The wild-type IL-15 moiety in the cam1615B7-H3 TriKE was designed to induce targeted delivery of a proliferative signal to NK cells. To test this, proliferation assays evaluating dilution of a CellTrace dye over a 7-day period were carried out on PBMCs treated with no treatment (NT), monomeric rhIL-15 (IL15), or the TriKE (cam1615B7-H3). At the end of the seven days, cells were harvested and proliferation was evaluated by gating on CD56+CD3− cells. […] Since IL-15 acts on both NK cells and T cells, specificity was evaluated next by gating on T cells (CD56-CD3+).
To measure the ability of the TriKE to specifically induce NK cell expansion via the IL-15 moiety, PBMCs from healthy donors were labeled with CellTrace Violet Proliferation Dye (Invitrogen, Carlsbad, CA, USA) according to kit specifications. After staining, cells were cultured with TriKEs at noted concentrations, or equimolar concentrations of controls, and incubated in a humidified atmosphere containing 5% CO2 at 37° C. for seven days. Cells were harvested, stained for viability with Live/Dead reagent (Invitrogen, Carlsbad, CA, USA) and surface stained for anti-CD56 PE/Cy7 (Biolegend, San Diego, CA, USA) and anti-CD3 PE-CF594 (BD Biosciences, Franklin Lakes, NJ, USA) to gate on the viable CD56+ CD3− NK cell population or the CD56-CD3+ T cell population. Data analysis was performed using FlowJo software (FlowJo LCC, version 7.6.5, Ashland, OR, USA).

[6] = test system: OVCAR8 ovarian cancer cells; assay: NK cell CD107a / IFNγ flow cytometry against OVCAR8; conditions: individual components with PBMCs and OVCAR8
Experimental: FIG. 29A is a graph illustrating pooled proportion of NK cells from healthy donors expressing CD107a+ (degranulation) against OVCAR8 and MA148 targets. FIG. 29B is a graph illustrating pooled proportion of NK cells from healthy donors expressing IFNγ cytokine production against OVCAR8 and MA148 targets.
Healthy donor or ovarian cancer PBMC cells were incubated with ovarian tumor targets at 2:1 E:T ratio for 4 hrs with 30 nM TriKE or control condition. FIG. 30A is a graph illustrating pooled proportion of NK cells from healthy donors expressing CD107a+ (degranulation) against OVCAR8 targets (N=8). FIG. 30B is a graph illustrating pooled proportion of NK cells from healthy donors expressing IFNγ cytokine production against OVCAR8 targets (N=8). FIG. 30C is a graph illustrating pooled proportion of NK cells from healthy donors expressing CD107a+ (degranulation) against OVCAR3 targets (N=4). FIG. 30D is a graph illustrating pooled proportion of NK cells from healthy donors expressing IFNγ cytokine production against OVCAR3 targets (N=4). FIG. 30E is a graph illustrating pooled proportion of NK cells from healthy donors expressing CD107a+ (degranulation) against OVCAR5 targets (N=7). FIG. 30F is a graph illustrating pooled proportion of NK cells from healthy donors expressing IFNγ cytokine production against OVCAR5 targets (N=7). […] FIG. 30I is a graph illustrating that tumor killing was evaluated using IncuCyte imaging assay. […] The percentage of Live (Nuclight Red+Caspase 3/7−) tumor cells was quantified over a 48-h period and normalized to tumor alone. Readings were obtained every 15 min (representative of four separate experiments). * p<0.05, ** p<0.01, *** p<0.001, and **** p<0.0001.
ADCC was measured in a flow cytometry assay by evaluating degranulation via CD107a (lysosomal-associated membrane protein LAMP-1) and intracellular IFNγ production. […] Samples were washed and evaluated in an LSRII flow cytometer (BD Biosciences, San Jose, CA, USA).
The ability of cam1615B7-H3 TriKE to mediate NK cell activity against ovarian cancer cells was evaluated. […]

Row | Molecule | killing of U266 in combination therapy [1] | killing of MM1S in combination therapy [2] | killing of RPMI-8226 in combination therapy [3] | killing of H929 in combination therapy [4] | overall T cell proliferation [5] | NK cell activity against OVCAR8 by individual components [6]
1 | CC(C)C[C@H](NC(=O)[C@H](Cc1ccccc1)NC(=O)c1cnccn1)B(O)O [bortezomib, reference compound] | enhanced killing | trend toward improved killing | synergistic killing | did not further enhance killing |  | 
2 | Nc1cccc2c1CN(C1CCC(=O)NC1=O)C2=O (stereo not drawn) [lenalidomide] |  | trend toward improved killing | synergistic killing | synergistic killing |  | 
3 | rhIL-15: monomeric recombinant human IL-15 control [reference compound] |  |  |  |  | robust proliferation of T cells | do not enhance NK cell activity
